In ChEMBL document CHEMBL1201862, “PubChem BioAssay data set” (2004):
Activity calls are given as the source filed them.

Columns and labels:
[1] = DRD fibroblast viability loss – cell-based, non-viral oncogenic, luminescence, dose response (AID 1934); assay type: functional; conditions: Homo sapiens
BJ [2] = assay: BJ-TERT fibroblast viability loss – cell-based, RAS-independent, luminescence, dose response (AID 1933); assay type: functional; conditions: Homo sapiens
BJ [3] = assay: growth inhibition of engineered Ras-driven BJ cells – cell-based, alamar blue fluorescence, cherrypicked samples, dose response (AID 2631); assay type: functional; conditions: Homo sapiens;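 further: confirmatory dose-response assay in RAS-dependent BJ fibroblasts engineered with TERT, LT and ST, with cytotoxicity read by fluorescence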
BJ [4] = assay: BJ-TERT-LT-ST fibroblast viability loss – cell-based, RAS-independent, luminescence, dose response (AID 1935); assay type: functional; conditions: Homo sapiens;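 further: BJ fibroblasts immortalized with TERT plus LT and ST oncogenes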
BJ [5] = assay: cells; assay type: functional, cell-based; conditions: Homo sapiens
Streptococcus = assay: GAS UMAA2166 growth inhibition – luminescence, BacTiterGlo, counter-screen for streptokinase expression inhibitor project, dose response (AID 1915); assay type: functional, organism-based;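 further: potency for reduction of bacterial viability or growth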
[6] = test system: Streptococcus sp. 'group A'; assay: Streptococcus pyogenes SK(-)GAS viability under kanamycin – luminescence, BacTiterGlo, confirmation, counter-screen for streptokinase expression inhibitor project, dose response (AID 1900); assay type: functional, organism-based
[7] = target: T1, Apoptotic protease-activating factor 1 (Homo sapiens, UniProt O14727); assay type: functional
T1 sequence (O14727 whole entry): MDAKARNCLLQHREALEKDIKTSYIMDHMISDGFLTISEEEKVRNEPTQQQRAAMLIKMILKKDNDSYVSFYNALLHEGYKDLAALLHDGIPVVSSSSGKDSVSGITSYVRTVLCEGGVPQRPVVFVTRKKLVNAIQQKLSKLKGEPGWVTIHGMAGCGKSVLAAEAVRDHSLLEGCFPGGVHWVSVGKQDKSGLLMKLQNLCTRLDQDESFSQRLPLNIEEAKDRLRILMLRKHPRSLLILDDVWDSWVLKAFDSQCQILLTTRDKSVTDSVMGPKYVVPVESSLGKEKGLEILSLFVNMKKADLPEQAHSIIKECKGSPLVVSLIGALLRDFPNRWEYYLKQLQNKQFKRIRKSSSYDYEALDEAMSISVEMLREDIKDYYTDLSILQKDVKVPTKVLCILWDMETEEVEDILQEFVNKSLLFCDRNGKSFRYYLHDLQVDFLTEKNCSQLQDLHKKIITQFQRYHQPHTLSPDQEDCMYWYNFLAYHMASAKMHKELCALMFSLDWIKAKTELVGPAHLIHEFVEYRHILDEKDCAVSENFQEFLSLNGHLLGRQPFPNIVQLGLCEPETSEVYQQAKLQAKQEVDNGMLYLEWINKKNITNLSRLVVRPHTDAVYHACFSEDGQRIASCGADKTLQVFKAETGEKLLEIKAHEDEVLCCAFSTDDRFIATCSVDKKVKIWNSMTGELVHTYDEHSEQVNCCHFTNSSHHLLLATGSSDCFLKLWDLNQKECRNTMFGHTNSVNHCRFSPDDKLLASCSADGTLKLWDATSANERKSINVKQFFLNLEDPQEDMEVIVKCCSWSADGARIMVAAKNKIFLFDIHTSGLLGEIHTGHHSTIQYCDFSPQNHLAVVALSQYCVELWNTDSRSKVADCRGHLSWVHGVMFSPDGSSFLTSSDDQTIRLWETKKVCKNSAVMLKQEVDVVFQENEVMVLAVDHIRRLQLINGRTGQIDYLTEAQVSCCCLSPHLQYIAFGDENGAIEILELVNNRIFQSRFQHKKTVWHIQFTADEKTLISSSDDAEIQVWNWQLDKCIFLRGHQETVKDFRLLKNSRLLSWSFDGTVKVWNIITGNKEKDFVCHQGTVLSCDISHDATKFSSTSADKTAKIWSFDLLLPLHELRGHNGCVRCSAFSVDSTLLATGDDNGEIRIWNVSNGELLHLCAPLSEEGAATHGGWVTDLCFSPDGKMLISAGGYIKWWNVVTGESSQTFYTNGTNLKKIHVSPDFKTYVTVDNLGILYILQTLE

Streptokinase A = target: T2, Streptokinase A (Streptococcus pyogenes serotype M1, UniProt P10520); assay: viability-normalized secreted streptokinase activity reduction – plasminogen activation absorbance, OD405, dose response (AID 1914); assay type: functional, Streptococcus pyogenes M1 GAS;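 further: secreted streptokinase activity via plasminogen activation per viability signal from cell pellet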
T2 sequence (P10520 whole entry): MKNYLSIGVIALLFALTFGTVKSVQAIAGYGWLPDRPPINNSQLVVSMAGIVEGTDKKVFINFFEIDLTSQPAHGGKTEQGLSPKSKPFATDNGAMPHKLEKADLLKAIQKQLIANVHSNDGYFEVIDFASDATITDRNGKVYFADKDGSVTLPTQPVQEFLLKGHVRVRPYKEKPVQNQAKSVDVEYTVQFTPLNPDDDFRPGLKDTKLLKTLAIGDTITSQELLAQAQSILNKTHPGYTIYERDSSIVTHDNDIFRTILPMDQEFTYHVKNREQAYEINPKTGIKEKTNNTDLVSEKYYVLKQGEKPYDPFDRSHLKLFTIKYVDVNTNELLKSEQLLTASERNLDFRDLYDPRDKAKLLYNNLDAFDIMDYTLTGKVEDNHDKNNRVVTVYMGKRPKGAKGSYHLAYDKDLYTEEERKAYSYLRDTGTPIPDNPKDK

Caspase-3 = target: T3, Caspase-3 (Homo sapiens, UniProt P42574); assay type: functional;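 further: Dose-response selectivity test against caspase-3 for candidate inhibitors of sentrin-specific proteases (SENPs)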
T3 sequence (P42574 whole entry): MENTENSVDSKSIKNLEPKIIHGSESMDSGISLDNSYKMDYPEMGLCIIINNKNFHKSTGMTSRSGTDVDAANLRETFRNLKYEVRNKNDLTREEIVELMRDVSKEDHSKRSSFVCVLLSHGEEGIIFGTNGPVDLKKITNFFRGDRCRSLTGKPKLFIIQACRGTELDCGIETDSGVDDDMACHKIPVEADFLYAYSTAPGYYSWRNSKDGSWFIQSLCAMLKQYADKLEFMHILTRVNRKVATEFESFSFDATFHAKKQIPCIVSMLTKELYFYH

[8] = target: T4, Sentrin-specific protease 6 (Homo sapiens, UniProt Q9GZR1); assay type: functional;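 further: Luminescence-based dose-response confirmatory assay of SENP6 inhibition, following up an ultra-high-throughput screen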
T4 sequence (Q9GZR1 whole entry): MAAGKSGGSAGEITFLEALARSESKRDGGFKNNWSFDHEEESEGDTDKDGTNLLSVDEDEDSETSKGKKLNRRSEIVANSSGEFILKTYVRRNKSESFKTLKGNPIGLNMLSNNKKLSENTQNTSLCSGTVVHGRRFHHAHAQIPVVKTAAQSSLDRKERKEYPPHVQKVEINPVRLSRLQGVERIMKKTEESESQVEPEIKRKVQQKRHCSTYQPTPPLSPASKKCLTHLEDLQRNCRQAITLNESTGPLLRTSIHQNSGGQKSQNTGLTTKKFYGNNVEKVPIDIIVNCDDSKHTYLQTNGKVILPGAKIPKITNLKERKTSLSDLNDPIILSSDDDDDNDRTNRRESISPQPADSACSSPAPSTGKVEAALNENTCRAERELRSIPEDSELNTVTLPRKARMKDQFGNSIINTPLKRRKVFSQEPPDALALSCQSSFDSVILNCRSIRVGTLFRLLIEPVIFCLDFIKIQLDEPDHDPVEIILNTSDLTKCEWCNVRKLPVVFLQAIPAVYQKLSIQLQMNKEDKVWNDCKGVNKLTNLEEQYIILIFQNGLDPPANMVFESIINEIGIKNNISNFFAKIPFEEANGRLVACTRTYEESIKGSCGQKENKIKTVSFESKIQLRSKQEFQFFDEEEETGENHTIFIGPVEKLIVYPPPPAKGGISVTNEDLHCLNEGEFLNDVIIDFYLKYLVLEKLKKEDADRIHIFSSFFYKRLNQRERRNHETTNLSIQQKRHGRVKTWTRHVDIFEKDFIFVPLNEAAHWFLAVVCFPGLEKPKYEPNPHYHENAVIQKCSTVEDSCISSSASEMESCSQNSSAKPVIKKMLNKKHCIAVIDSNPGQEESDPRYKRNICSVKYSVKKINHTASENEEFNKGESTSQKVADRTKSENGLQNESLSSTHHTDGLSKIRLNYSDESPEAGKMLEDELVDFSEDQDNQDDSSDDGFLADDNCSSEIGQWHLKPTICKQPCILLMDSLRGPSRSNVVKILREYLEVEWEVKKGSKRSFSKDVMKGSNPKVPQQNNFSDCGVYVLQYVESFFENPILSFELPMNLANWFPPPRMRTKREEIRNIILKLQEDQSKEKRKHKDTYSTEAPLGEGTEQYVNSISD

[9] = target: T5, Sentrin-specific protease 7 (Homo sapiens, UniProt Q9BQF6); assay type: functional;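 further: Luminescence-based dose-response confirmation of ultra-high-throughput screening hits, measuring inhibition of SENP7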
T5 sequence (Q9BQF6 whole entry): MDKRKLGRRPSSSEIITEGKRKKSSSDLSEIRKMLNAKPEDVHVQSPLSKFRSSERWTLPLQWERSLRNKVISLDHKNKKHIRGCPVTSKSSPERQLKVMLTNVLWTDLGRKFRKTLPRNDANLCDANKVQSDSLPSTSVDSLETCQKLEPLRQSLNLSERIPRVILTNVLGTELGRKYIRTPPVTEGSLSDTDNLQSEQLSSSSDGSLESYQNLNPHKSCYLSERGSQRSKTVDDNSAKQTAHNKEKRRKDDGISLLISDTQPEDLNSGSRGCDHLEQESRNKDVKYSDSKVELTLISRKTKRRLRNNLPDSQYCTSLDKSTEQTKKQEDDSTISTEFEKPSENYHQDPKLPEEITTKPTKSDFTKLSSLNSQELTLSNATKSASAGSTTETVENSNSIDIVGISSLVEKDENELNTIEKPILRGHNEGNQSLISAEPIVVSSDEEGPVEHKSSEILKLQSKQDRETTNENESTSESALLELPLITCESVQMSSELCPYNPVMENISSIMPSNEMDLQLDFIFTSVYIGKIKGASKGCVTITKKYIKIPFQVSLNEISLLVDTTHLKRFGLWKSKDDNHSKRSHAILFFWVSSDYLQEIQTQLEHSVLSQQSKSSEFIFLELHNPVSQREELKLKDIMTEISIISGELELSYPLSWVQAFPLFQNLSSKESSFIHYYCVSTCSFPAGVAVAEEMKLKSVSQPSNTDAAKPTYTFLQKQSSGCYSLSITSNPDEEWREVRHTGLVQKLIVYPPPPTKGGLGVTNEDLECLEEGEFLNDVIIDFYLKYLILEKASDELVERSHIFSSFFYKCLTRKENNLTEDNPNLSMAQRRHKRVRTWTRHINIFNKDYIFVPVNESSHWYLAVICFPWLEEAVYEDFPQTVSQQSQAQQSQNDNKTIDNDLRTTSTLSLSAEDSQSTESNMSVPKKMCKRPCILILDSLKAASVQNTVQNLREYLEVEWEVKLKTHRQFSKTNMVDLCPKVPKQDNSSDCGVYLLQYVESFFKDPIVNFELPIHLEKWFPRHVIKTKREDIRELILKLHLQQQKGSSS

[10] = target: T6, Sentrin-specific protease 8 (Homo sapiens, UniProt Q96LD8); assay type: functional;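 further: luminescence read-out of SENP8 inhibition, dose-response confirmation following an ultra-high-throughput screen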
T6 sequence (Q96LD8 whole entry): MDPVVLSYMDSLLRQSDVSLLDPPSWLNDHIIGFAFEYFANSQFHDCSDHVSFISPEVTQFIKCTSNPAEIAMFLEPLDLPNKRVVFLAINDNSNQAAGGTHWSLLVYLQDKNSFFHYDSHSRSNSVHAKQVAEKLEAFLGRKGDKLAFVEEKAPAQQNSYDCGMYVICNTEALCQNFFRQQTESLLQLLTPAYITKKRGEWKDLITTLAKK

Large T antigen = Large T antigen (Simian virus 40, UniProt P03070); assay type: functional, Betapolyomavirus macacae;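 further: Confirmatory-stage PubChem screen for compounds that inhibit SV40 T antigen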
Large T antigen, sequence (P03070 whole entry): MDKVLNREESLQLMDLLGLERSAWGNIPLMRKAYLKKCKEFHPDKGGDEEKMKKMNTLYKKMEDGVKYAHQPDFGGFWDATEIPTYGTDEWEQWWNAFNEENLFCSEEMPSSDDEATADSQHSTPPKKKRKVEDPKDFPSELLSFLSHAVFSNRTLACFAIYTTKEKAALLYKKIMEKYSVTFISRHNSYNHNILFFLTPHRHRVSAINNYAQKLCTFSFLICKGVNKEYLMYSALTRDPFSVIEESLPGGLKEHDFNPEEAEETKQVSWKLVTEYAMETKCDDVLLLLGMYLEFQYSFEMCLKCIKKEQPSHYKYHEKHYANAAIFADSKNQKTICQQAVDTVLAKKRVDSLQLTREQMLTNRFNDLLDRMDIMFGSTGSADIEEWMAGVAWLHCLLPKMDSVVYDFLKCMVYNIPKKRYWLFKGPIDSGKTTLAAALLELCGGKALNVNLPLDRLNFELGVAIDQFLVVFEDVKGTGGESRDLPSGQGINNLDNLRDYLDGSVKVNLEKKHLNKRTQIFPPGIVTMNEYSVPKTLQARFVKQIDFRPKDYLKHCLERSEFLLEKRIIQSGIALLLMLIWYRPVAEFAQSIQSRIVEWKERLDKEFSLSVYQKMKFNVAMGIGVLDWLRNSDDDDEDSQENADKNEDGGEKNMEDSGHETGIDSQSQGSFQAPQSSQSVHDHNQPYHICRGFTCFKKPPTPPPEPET

H4 = assay: Luminescence Cell-Based Dose Response HTS to Identify Activators of 5'UTR Stem-Loop Driven Prion Protein mRNA Translation in H4 Neuroglioblastoma Cells. [Related pubchem assays: 1829 (Project Summary), 1814 (Primary HTS)]; assay type: functional; conditions: Homo sapiens
[11] = Luminescence Cell-Based Dose Response HTS to Identify Activators of Luciferase Translation or Activity in H4 […] Cells. [Related pubchem assays: 1829 (Project Summary), 1814 (Primary HTS)]; assay type: functional
[12] = Luminescence Cell-Based Dose Confirmation HTS to Identify Activators of 5'UTR Stem-Loop Driven Alpha-Synuclein mRNA Translation in H4 Neuroglioblastoma Cells. [Related pubchem assays: 1829 (Project Summary), 1814 (Primary HTS)]; assay type: functional
Cytochrome P450 2C9 = Cytochrome P450 2C9 (Homo sapiens, UniProt P11712)
Cytochrome P450 2C9, sequence (P11712 whole entry): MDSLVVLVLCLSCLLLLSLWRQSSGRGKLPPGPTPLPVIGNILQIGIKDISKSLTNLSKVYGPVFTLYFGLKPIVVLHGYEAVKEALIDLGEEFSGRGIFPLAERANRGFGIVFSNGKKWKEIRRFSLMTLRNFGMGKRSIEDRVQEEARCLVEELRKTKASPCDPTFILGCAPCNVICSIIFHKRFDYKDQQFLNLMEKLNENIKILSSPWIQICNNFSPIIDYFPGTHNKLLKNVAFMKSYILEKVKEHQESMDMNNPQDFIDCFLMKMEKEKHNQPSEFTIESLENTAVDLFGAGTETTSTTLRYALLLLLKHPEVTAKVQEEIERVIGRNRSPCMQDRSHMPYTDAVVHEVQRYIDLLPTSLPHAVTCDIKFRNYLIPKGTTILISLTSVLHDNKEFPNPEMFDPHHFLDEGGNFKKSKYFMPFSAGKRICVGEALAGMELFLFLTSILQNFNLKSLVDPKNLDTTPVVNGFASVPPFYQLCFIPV

COCCCNC(=O)Cc1c(C)c2c(cc(C)c3c(C(C)(C)C)coc32)oc1=O
EC50 [1]: 10.6 µM (inconclusive) | EC50 (BJ [2]): 8.02 µM (inconclusive) | EC50 (BJ [3]): 0.473 µM (active) | EC50 (BJ [4]): 4.18 µM (active) | EC50 (BJ [5]): 19.3 µM (inconclusive)

C[C@@]12CCC=C[C@H]1[C@H](c1ccc3ccccc3c1Br)N(Cc1ccccc1)C2=O
EC50 (Streptococcus): 5.78 µM (active) | EC50 [6]: 4.22 µM (active) | IC50 [7]: 59.3 µM (active) | EC50 (Streptokinase A): 5.76 µM (active)

Fc1ccc(NC(=S)N2N=CCC2c2ccccc2)cc1 (stereo not given)
IC50 (Caspase-3): 15.9 µM (active) | IC50 [8]: 39.3 µM (active) | IC50 [9]: 11.8 µM (active) | IC50 [10]: 38.3 µM (active)

Cc1cc(C)c2c(CCl)cc(=O)oc2c1
EC50 [1]: 0.762 µM (active) | EC50 (BJ [2]): 0.784 µM (active) | EC50 (BJ [3]): 0.296 µM (active) | IC50 (Large T antigen): 9.73 µM (active) | EC50 (BJ [4]): 0.584 µM (inconclusive) | EC50 (BJ [5]): 0.676 µM (active)

Clc1ccc(-c2cc3ccccc3[nH]2)cc1
EC50 (H4): 9.01 µM (active) | EC50 [11]: 106 µM (active) | EC50 [12]: 3.77 µM (active) | IC50 (Caspase-3): 16 µM (active) | AC50 (Cytochrome P450 2C9): 11.2 µM (inconclusive) | IC50 [8]: 18 µM (active) | IC50 [9]: 8.48 µM (active) | IC50 [10]: 19.9 µM (active)

Cc1cc(-n2c(C)cc(C(=O)COc3ccc(F)c(F)c3)c2C)no1
IC50 (Caspase-3): 21 µM (active) | IC50 [8]: 22.7 µM (active) | IC50 [9]: 8.26 µM (active) | IC50 [10]: 20.4 µM (active)

C/C(=N/OC(=O)c1ccccc1Br)c1ccc(C)cc1
IC50 (Caspase-3): 31.3 µM (active) | IC50 [8]: 28.1 µM (active) | IC50 [9]: 7.72 µM (active) | IC50 [10]: 46.9 µM (active)
